Reference: PubChem BioAssay AID328 (DTP/NCI, 2004)
“And” between values parts separate entries of the source, which are not always exact repeats. Identical values can stand only once. Toxic doses and inconclusive results are not listed. Rule for the calls: active = survival T/C of 150% or more; inactive = T/C below 125% in these data.

System: BDF1 mice, P388 leukemia ip, median survival T/C
Assay: NCI In Vivo Anticancer Drug Screen. Data for tumor model P388 Leukemia (intraperitoneal) in B6D2F1 (BDF1) mice
Settings: endpoint: median survival time, higher = longer survival
Method in brief: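 In tumour-bearing mice, survival after compound treatment is set against the vehicle group and given as a quotient.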

[1] = dose: 50.0 mg/kg/injection, schedule: Q01DX009 (ip), vehicle: saline with Tween-80
[2] = dose: 100.0 mg/kg/injection, schedule: Q01DX009 (ip), vehicle: saline with Tween-80
[3] = dose: 200.0 mg/kg/injection, schedule: Q01DX009 (ip), vehicle: saline with Tween-80
[4] = dose: 400.0 mg/kg/injection, schedule: Q01DX009 (ip), vehicle: saline with Tween-80
[5] = dose: 12.5 mg/kg/injection, schedule: Q01DX009 (ip), vehicle: saline with Tween-80
[6] = dose: 25.0 mg/kg/injection, schedule: Q01DX009 (ip), vehicle: saline with Tween-80
[7] = dose: 200.0 mg/kg/injection, schedule: Q01DX001 (ip), vehicle: saline with Tween-80
[8] = dose: 400.0 mg/kg/injection, schedule: Q01DX001 (ip), vehicle: saline with Tween-80

Measured: T/C

C=C1CCCCC1O (stereo not given)
inactive: [1] 101 % of control | [2] 95 % of control | [3] 101 % of control

Nc1cccs1
inactive: dose: 9.38 mg/kg/injection, schedule: Q01DX009 (ip), vehicle: other 104 % of control | dose: 18.75 mg/kg/injection, schedule: Q01DX009 (ip), vehicle: other 100 % of control | dose: 37.5 mg/kg/injection, schedule: Q01DX009 (ip), vehicle: other 100 % of control | [1] 98 % of control | dose: 75.0 mg/kg/injection, schedule: Q01DX009 (ip), vehicle: other 98 % of control | [2] 116 % of control | dose: 150.0 mg/kg/injection, schedule: Q01DX009 (ip), vehicle: other 101 % of control | [3] 114 % of control | [4] 87 % of control

COC(=O)C12CCc3cc(OC)ccc3C1=CC(=O)C2 (stereo not given)
inactive: dose: 100.0 mg/kg/injection, schedule: Q04DX003 (ip), vehicle: saline sonified 100 % of control | dose: 200.0 mg/kg/injection, schedule: Q04DX003 (ip), vehicle: saline sonified 95 % of control

CCC(=O)O[C@H]1CC[C@H]2[C@@H]3CC(=C(Br)Br)C4=CC(=O)CC[C@]4(C)[C@H]3CC[C@]12C
inactive: [5] 91 % of control | [6] 100 % of control | [1] 86 % of control and 90 % of control

COC(=O)CC(CC(=O)c1ccccc1)c1ccccc1 (stereo not given)
inactive: [1] 95 % of control | [2] 97 % of control | [3] 87 % of control | [4] 88 % of control

Nc1ccc(C2=NN(c3ccccc3)CN(c3ccccc3)N2)cc1
inactive: dose: 100.0 mg/kg/injection, schedule: Q01DX001 (ip), vehicle: saline with Tween-80 101 % of control | [7] 107 % of control | [8] 102 % of control

O=c1c2ccccc2c2c3c1cccc3c1cccc3c(=O)c4ccccc4c2c31
inactive: dose: 100.0 mg/kg/injection, schedule: Q04DX003 (ip), vehicle: saline with Tween-80 86 % of control | dose: 200.0 mg/kg/injection, schedule: Q04DX003 (ip), vehicle: saline with Tween-80 90 % of control | dose: 400.0 mg/kg/injection, schedule: Q04DX003 (ip), vehicle: saline with Tween-80 90 % of control

CCC/C=C/C=C/C1CC(O)C(O)C(=O)C1CO (stereo not given)
inactive: [5] 99 % of control | [6] 106 % of control | [1] 97 % of control | [2] 101 % of control

Cn1c2nc(=O)n(-c3ccccc3)c(=O)c-2nc2ccccc21
inactive: [5] 95 % of control | [6] 104 % of control | [1] 91 % of control and 95 % of control

Cn1cc(NC(=O)c2cc(NC(=O)c3cc(NC=O)cn3C)cn2C)cc1C(=O)NCCC(=N)N
inactive: dose: 110.0 mg/kg/injection, schedule: Q04DX003 (ip), vehicle: Klucel (hydroxypropylcellulose) (HPC) 113 % of control | dose: 170.0 mg/kg/injection, schedule: Q04DX003 (ip), vehicle: Klucel (hydroxypropylcellulose) (HPC) 109 % of control | dose: 255.0 mg/kg/injection, schedule: Q04DX003 (ip), vehicle: Klucel (hydroxypropylcellulose) (HPC) 104 % of control

CCC1CC(O)c2c(O)c3c(c(O)c2C1O)C(=O)c1cccc(O)c1C3=O (stereo not given) (tested in a mixture with another compound)
inactive: dose: 0.5 mg/kg/injection, schedule: Q01DX001 (ip), vehicle: saline 100 % of control | dose: 1.0 mg/kg/injection, schedule: Q01DX001 (ip), vehicle: saline 109 % of control | dose: 2.0 mg/kg/injection, schedule: Q01DX001 (ip), vehicle: saline 109 % of control

CCOC(=O)c1cc[nH]c1CC(=O)NC
inactive: [7] 112 % of control | [8] 112 % of control

CC(NC(=O)c1ccc(Cl)cc1Cl)c1ccccc1 (stereo not given)
inactive: dose: 100.0 mg/kg/injection, schedule: Q01DX001 (ip), vehicle: other 100 % of control | dose: 400.0 mg/kg/injection, schedule: Q01DX001 (ip), vehicle: other 95 % of control

CCOC(=O)C(C)NC(=O)C(C)NC(=O)OCc1ccccc1 (stereo not given)
inactive: dose: 100.0 mg/kg/injection, schedule: Q01DX009 (ip), vehicle: gum acacia 120 % of control | dose: 100.0 mg/kg/injection, schedule: Q04DX003 (ip), vehicle: gum acacia 95 % of control | dose: 200.0 mg/kg/injection, schedule: Q01DX009 (ip), vehicle: gum acacia 100 % of control | dose: 200.0 mg/kg/injection, schedule: Q04DX003 (ip), vehicle: gum acacia 112 % of control | dose: 400.0 mg/kg/injection, schedule: Q01DX009 (ip), vehicle: gum acacia 95 % of control | dose: 400.0 mg/kg/injection, schedule: Q04DX003 (ip), vehicle: gum acacia 87 % of control
